The target of assay [1] is T1, c-KIT VVDV kinase (V559 and V560 deleted and D816V mutation, Seq ID no. 5) (Homo sapiens, UniProt P10721, D816V/DEL559-560).
T1 construct: This construct contains residues T544-V976 of cKit (except for the D816V mutation and the deletion of residues V559 and V560); GST (N); TEV cleavage site (N); purchased deCODE Biostructures
As to the kind of experiment: cKIT-VVDV Kinase Assay. The note with it: enzymatic assay, ATP 200 uM. Format: biochemical. The procedure: In this assay, the oxidation of NADH (measured by decrease in absorbance at 340 nm) was continuously monitored spectrophotometrically. […] The inhibition reaction was started by mixing serial diluted test compound with the above reaction mixture. The absorption at 340 nm was monitored continuously for 5 hours at 30° C. on Synergy 2 plate reader (BioTech). […] The protein construct was prepared by deCODE Biostructures using procedures known in the art. This construct contains […] of cKit (except for the D816V […]), an N-terminal tag, a GST-fusion sequence and a TEV cleavage site. This construct is identical to Seq ID no. 1 except for the D816V […].

Assay [2] has as its target T2, c-KIT D816V kinase (Seq ID no. 4) (Homo sapiens, UniProt P10721, D816V).
T2 construct: D816V c-KIT (residues T544-V976 with N-terminal GST fusion, 16 nM); purchased deCODE Biostructures
Nature of the assay: c-KIT D816V kinase Assay. Format: biochemical. The conditions noted are these: enzymatic assay, ATP 200 uM. On the procedure:
In this assay, the oxidation of NADH (measured by decrease in absorbance at 340 nm) was continuously monitored spectrophotometrically. […] The inhibition reaction was started by mixing serial diluted test compound with the above reaction mixture. The absorption at 340 nm was monitored continuously for 5 hours at 30° C. on Synergy 2 plate reader (BioTech).
The protein construct was prepared by deCODE Biostructures using procedures known in the art. The construct contains residues T544-V976 of cKit, an N-terminal tag, a GST-fusion sequence and a TEV cleavage site. This construct is identical to Seq ID no. 1 except for the D816V mutation.

For assay [3], the target named is Phospho-KIT (Tyr719) in GIST48 cells (Homo sapiens, UniProt P10721). Nature of the assay: GIST48 KIT Western Blot. The note with it: 4 hours, read-out: pKIT suppression by western blot analysi GIST48. Format: cell-based.
Phospho-KIT (Tyr719) in GIST48 cells, sequence (P10721 whole entry V560D/D820A, form open): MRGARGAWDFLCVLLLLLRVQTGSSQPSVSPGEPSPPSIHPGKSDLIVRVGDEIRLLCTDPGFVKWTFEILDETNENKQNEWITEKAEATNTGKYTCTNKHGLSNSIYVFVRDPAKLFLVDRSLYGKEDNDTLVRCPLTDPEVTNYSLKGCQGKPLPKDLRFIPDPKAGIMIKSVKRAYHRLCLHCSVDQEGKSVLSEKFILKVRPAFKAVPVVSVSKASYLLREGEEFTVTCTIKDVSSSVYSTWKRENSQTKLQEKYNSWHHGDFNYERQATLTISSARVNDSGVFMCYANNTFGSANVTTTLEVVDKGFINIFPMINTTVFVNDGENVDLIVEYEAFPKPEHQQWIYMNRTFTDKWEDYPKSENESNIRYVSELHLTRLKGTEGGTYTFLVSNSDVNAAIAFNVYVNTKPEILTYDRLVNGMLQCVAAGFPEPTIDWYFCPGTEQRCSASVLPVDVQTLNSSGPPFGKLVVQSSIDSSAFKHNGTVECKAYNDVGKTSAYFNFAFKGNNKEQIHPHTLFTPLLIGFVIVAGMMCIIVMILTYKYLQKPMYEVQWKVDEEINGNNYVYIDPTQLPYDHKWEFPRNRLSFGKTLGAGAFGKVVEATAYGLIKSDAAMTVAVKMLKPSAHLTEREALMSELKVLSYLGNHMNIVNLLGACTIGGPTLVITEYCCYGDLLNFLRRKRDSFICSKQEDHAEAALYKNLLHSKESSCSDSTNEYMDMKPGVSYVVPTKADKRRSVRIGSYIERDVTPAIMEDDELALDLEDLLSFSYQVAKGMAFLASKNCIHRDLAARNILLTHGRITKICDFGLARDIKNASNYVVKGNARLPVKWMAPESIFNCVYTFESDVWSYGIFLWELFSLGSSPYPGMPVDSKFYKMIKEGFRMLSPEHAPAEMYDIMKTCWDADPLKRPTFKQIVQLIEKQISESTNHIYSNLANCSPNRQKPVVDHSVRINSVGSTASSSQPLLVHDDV
Assay [4] addresses Phospho-KIT (Tyr719) in GIST430 cells (Homo sapiens, UniProt P10721). Nature of the assay: GIST430 KIT Western Blot. The format is cell-based. The conditions noted are these: 4 hours, read-out: pKIT suppression by western blot analysi GIST430.
Assay [5] addresses T3, c-KIT V654A kinase (Seq ID no. 2) (Homo sapiens, UniProt P10721, V654A).
T3 construct: V654A c-Kit (residues T544-V976 with N-terminal GST fusion, 47 nM); purchased deCODE Biostructures
Nature of the assay: c-KIT V654A Kinase Assay. The format is biochemical. The note with it: enzymatic assay, ATP 200 μM. On the procedure:
In this assay, the oxidation of NADH (measured by decrease in absorbance at 340 nm) was continuously monitored spectrophotometrically. […] The inhibition reaction was started by mixing serial diluted test compound with the above reaction mixture. The absorption at 340 nm was monitored continuously for 6 hours at 30° C. on Synergy 2 plate reader (BioTech).
The protein construct was prepared by deCODE Biostructures using procedures known in the art. The construct contains residues T544-V976 of cKit, an N-terminal tag, a GST-fusion sequence and a TEV cleavage site. This construct is identical to Seq ID no.

Assay [6] concerns the target T4, c-KIT kinase (Seq ID no. 1) (Homo sapiens, UniProt P10721).
T4 construct: GST (N); TEV cleavage site (N); purchased deCODE Biostructures
Nature of the assay: c-KIT Kinase Assay (pyruvate kinase/lactate dehydrogenase coupled). The note with it: enzymatic assay, ATP 200 μM; read-out: KIT (wt). The format is biochemical. On the procedure: In this assay, the oxidation of NADH (measured by decrease in absorbance at 340 nm) was continuously monitored spectrophotometrically. […] The absorption at 340 nm was monitored continuously for 2 hours at 30° C. on Synergy 2 (BioTeK). The reaction rate was calculated using the 0 to 1 h time frame. Percent inhibition was obtained by comparison of reaction rate with that of a control (i.e. with no test compound). IC50 values were calculated from a series of percent inhibition values determined at a range of inhibitor concentrations using software routines as implemented in the GraphPad Prism software package. The protein construct was prepared by deCODE Biostructures using procedures known in the art. The construct contains […] of cKit, an N-terminal tag, a GST-fusion sequence and a TEV cleavage site.

In assay [7] the target is T5, c-KIT T670I kinase (Seq ID no. 6) (Homo sapiens, UniProt P10721, T670I).
T5 construct: GST (N); TEV cleavage site (N); purchased deCODE Biostructures
T5 sequence (P10721 544-976 T670I): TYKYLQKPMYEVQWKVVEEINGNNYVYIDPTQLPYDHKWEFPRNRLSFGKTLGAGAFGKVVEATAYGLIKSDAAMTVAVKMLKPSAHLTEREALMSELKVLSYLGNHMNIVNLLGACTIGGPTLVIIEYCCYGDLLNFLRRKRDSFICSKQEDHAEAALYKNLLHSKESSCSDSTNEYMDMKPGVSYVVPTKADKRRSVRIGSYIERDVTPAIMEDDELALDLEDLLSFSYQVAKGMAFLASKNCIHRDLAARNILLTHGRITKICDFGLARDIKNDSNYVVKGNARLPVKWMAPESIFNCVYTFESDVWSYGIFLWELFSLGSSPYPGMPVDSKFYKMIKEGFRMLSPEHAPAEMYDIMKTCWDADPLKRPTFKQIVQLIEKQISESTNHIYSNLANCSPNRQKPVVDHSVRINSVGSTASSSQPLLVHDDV
As to the kind of experiment: c-KIT T670I Kinase Assay. The format is biochemical. The note with it: enzymatic assay, ATP 200 uM. On the procedure:
(§1) In this assay, the oxidation of NADH (measured by decrease in absorbance at 340 nm) was continuously monitored spectrophotometrically. […] The inhibition reaction was started by mixing serial diluted test compound with the above reaction mixture. The absorption at 340 nm was monitored continuously for 5 hours at 30° C. on Synergy 2 plate reader (BioTech). […] The protein construct was prepared by deCODE Biostructures using procedures known in the art. The construct contains […] of cKit, an N-terminal tag, a GST-fusion sequence and a TEV cleavage site. This construct is identical to Seq ID no.

Assay [8] addresses T6, c-KIT D816H kinase (Seq ID no. 3) (Homo sapiens, UniProt P10721, D816H).
T6 construct: GST (N); TEV cleavage site (N); purchased deCODE Biostructures
Nature of the assay: c-KIT D816H Kinase Assay. Format: biochemical. The note with it: enzymatic assay, ATP 200 μM. The procedure:
as §1, with “6” for “5”, “no. 1 except for the D816H mutation.” for “no.”

Assay [9] has as its target T7, Phospho-KIT (Tyr719) in GIST882 cells (Homo sapiens, UniProt P10721, K642E).
T7 construct: endogenous in cells; host or cells: GIST882
As to the kind of experiment: GIST882 KIT Western Blot. Format: cell-based. The note with it: 4 hours, read-out: pKIT suppression by western blot analysi GIST 882. The procedure:
GIST48, GIST430, and GIST882 cells were obtained from J. Fletcher (Brigham and Women's Hospital, Boston, Mass.). GIST T1 cells were obtained from B. Rubin (Cleveland Clinic, Cleveland, Ohio) and Professor Takahiro Taguchi (Kochi Medical School, Nankoku, Kochi, Japan). […] GIST430 cells were grown in Ham's F10 medium supplemented with 15% characterized fetal bovine serum (Invitrogen, Carlsbad, Calif.), 30 mg/L bovine pituitary extract (BD Biosciences, San Jose, Calif.), 0.5% Mito+ serum extender (BD Biosciences, San Jose, Calif.), 1 unit/mL penicillin G, 1 μg/ml streptomycin, and 0.29 mg/mL L-glutamine at 37° C., 5% CO2, 95% humidity. GIST T1 cells were grown in DMEM medium supplemented with 10% characterized fetal bovine serum (Invitrogen, Carlsbad, Calif.), 1 unit/mL penicillin G, 1 ng/ml streptomycin, and 0.29 mg/mL L-glutamine at 37° C., 5% CO2, and 95% humidity. Cells were allowed to expand until reaching 70-95% confluence at which point they were subcultured or harvested for assay use.
Two hundred fifty thousand cells were added per well in a 24-well tissue-culture treated plate. Cells were then incubated overnight at 37° C., 5% CO2, 95% humidity. Medium was aspirated, cells were washed with PBS, and serum-free RPMI1640 medium was added. A serial dilution of test compound was added to plates containing cells and plates were incubated for 4 hours at 37° C., 5% CO2, 95% humidity. Cells were washed with PBS, then lysed. Cell lysates were separated by SDS-PAGE and transferred to PVDF. Phospho-KIT (Tyr719) was detected using an antibody from Cell Signaling Technology (Beverly, Mass.), ECL Plus detection reagent (GE Healthcare, Piscataway, N.J.) and a Molecular Devices Storm 840 phosphorimager in fluorescence mode. Blots were stripped and probed for total KIT using an antibody from Santa Cruz Biotech (Santa Cruz, Calif.). IC50 values were calculated using Prism software (Graphpad, San Diego, Calif.).
(A western blot detects proteins with antibodies after separation by electrophoresis.)

T2 sequence (P10721 544-976 D816V): as the sequence (P10721 544-976 T670I) above, with I127T, D273V counted along it
T3 sequence (P10721 544-976 V654A): as the sequence (P10721 544-976 T670I) above, with V111A, I127T counted along it
T4 sequence (P10721 with tags, fused parts or gaps): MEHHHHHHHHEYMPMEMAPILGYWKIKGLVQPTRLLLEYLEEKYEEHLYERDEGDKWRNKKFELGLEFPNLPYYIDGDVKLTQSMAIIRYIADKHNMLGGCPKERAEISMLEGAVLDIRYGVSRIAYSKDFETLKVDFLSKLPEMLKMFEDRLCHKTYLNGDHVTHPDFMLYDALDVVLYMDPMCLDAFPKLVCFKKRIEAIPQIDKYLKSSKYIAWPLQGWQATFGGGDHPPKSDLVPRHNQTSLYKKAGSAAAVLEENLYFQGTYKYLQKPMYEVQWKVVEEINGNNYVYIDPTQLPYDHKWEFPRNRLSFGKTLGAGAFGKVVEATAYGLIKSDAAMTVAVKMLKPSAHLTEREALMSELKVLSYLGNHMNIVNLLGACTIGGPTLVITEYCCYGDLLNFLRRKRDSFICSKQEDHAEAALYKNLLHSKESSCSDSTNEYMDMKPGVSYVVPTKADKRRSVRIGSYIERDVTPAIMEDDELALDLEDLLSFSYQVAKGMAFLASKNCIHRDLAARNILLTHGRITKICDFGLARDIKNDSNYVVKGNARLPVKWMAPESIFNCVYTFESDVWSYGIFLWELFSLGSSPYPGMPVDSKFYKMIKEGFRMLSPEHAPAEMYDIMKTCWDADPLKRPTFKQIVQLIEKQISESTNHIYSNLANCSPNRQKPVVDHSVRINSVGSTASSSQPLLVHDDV
T6 sequence (P10721 544-976 D816H): as the sequence (P10721 544-976 T670I) above, with I127T, D273H counted along it
T1 sequence (P10721 with tags, fused parts or gaps DEL559-560/D816V): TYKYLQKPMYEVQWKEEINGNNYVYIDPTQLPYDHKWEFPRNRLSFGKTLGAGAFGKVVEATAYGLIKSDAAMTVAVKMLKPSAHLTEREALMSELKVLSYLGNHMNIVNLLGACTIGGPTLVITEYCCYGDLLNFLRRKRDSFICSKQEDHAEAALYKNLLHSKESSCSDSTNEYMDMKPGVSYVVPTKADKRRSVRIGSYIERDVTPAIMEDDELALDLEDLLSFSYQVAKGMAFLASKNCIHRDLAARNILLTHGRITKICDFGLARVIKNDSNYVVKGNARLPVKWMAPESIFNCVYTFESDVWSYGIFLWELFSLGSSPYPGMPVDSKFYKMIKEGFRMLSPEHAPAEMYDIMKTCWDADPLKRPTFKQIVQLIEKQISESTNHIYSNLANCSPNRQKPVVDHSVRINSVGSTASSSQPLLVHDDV
Phospho-KIT (Tyr719) in GIST430 cells, sequence (P10721 with tags, fused parts or gaps DEL560-576/V654A, form open): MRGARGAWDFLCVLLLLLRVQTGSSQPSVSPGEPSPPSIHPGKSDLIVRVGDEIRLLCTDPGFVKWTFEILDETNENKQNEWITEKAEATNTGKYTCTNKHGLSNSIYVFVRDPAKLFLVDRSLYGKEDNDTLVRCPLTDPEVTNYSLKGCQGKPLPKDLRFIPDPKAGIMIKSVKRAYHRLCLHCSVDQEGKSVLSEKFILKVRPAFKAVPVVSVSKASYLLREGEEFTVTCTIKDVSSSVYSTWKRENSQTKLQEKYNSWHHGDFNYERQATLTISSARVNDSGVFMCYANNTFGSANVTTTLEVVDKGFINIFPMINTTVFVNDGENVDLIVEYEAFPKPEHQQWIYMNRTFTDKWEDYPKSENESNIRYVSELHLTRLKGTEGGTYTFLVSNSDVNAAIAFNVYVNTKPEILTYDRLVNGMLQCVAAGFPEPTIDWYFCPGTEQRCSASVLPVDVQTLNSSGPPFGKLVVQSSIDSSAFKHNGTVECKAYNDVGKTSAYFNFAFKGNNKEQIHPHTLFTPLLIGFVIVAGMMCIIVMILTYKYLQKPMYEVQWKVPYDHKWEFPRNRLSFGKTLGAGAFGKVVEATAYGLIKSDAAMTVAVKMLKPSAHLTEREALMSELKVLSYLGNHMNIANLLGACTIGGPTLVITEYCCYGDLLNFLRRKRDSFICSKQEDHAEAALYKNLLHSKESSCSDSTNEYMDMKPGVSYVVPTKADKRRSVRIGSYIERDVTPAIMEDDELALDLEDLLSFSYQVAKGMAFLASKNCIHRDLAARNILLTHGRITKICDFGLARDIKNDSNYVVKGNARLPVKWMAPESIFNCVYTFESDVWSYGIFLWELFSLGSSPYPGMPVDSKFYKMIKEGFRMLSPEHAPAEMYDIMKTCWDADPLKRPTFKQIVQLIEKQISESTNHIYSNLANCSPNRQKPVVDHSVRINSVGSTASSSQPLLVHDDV
T7 sequence (P10721 26-976 K642E): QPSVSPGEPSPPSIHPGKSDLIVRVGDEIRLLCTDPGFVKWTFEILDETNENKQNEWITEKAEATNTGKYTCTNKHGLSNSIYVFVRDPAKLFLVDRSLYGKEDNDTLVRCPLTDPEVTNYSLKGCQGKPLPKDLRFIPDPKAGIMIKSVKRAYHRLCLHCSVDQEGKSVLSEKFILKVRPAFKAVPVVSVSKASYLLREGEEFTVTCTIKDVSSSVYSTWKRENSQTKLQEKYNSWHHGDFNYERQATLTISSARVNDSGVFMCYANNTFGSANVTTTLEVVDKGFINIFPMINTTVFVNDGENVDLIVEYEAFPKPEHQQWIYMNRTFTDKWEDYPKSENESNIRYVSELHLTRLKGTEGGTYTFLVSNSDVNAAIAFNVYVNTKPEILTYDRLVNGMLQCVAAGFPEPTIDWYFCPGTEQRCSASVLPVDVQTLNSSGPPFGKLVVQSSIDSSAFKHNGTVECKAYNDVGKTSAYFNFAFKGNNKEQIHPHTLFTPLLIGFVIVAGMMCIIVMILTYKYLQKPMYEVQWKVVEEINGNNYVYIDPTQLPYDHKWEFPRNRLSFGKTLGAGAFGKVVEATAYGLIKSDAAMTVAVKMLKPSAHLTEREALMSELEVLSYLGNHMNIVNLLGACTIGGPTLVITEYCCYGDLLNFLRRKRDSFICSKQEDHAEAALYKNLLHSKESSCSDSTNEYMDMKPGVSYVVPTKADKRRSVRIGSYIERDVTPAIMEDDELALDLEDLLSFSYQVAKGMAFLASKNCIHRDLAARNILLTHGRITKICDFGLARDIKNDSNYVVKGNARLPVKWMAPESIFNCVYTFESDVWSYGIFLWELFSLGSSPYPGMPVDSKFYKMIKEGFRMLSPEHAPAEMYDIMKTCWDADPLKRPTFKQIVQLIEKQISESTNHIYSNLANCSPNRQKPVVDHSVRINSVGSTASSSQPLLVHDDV

Consider `CCn1c(=O)c(-c2cc(NC(=O)Nc3cccc(Cl)c3)c(F)cc2F)cc2cnc(NC)cc21` [Example 17, 1-(3-chlorophenyl)-3-(5-(1-ethyl-7-(methylamino)-2-oxo-1,2-dihydro-1,6-naphthyridin-3-yl)-2,4-difluorophenyl)urea], for which the IC50 in [1] was in the range of 100 to 1000 nM; in assay [2], 10 to 100 nM; in assay [3], 10 to 100 nM; in [4] it was 10 to 100 nM.
`Cc1cc(F)c(NC(=O)Nc2ccccc2)cc1-c1cc2cnc(NC(=O)N3CCC3)cc2n(C(C)C)c1=O` [Example 109, N-(3-(4-fluoro-2-methyl-5-(3-phenylureido)phenyl)-1-isopropyl-2-oxo-1,2-dihydro-1,6-naphthyridin-7-yl)azetidine-1-carboxamide]: the IC50 in [2], in [5], in assay [3], in [6], in assay [7] and in [8] was 10 to 100 nM throughout.
Take `CC(=O)Nc1cc2c(cn1)cc(-c1cc(NC(=O)Nc3cccc(F)c3)c(F)cc1Cl)c(=O)n2C(C)C` [Example 99, N-(3-(2-chloro-4-fluoro-5-(3-(3-fluorophenyl)ureido)phenyl)-1-isopropyl-2-oxo-1,2-dihydro-1,6-naphthyridin-7-yl)acetamide]: the IC50 was less than 10 nM in assay [2]; 10 to 100 nM in assay [5]; less than 10 nM in assay [6]; 10 to 100 nM in assay [7]; 10 to 100 nM in [8].
As for `CCn1c(=O)c(-c2cc(NC(=O)Nc3ccccc3)c(F)cc2Br)cc2cnc(NC(C)=O)cc21` [Example 53, 1-(5-(7-acetamido-1-ethyl-2-oxo-1,2-dihydro-1,6-naphthyridin-3-yl)-4-bromo-2-fluorophenyl)-3-phenylurea], the IC50 in assay [1] is less than 10 nM; in assay [2], less than 10 nM; in assay [5] it was 10 to 100 nM; in assay [9] it was 10 to 100 nM; in assay [3], 100 to 1000 nM; in assay [4] it was less than 10 nM. Besides, the values for the IC50 in [6] and in assay [7] were less than 10 nM and 10 to 100 nM, respectively.
Consider `CCn1c(=O)c(-c2cc(NC(=O)Nc3ccccc3)c(F)cc2C)cc2cnc(Nc3cnn(C)c3)cc21` [Example 115, 1-(5-(1-ethyl-7-((1-methyl-1H-pyrazol-4-yl)amino)-2-oxo-1,2-dihydro-1,6-naphthyridin-3-yl)-2-fluoro-4-methylphenyl)-3-phenylurea], for which the IC50 in [2] was less than 10 nM; in [5] it was 10 to 100 nM; in assay [6], less than 10 nM; in assay [7] it was 10 to 100 nM; in [8] it was less than 10 nM.
For `CCn1c(=O)c(-c2cc(NC(=O)Nc3ccc(F)c(CN4CCCC4)c3)c(F)cc2Cl)cc2cnc(NC)cc21` [Example 97, 1-(4-chloro-5-(1-ethyl-7-(methylamino)-2-oxo-1,2-dihydro-1,6-naphthyridin-3-yl)-2-fluorophenyl)-3-(4-fluoro-3-(pyrrolidin-1-ylmethyl)phenyl)urea], the IC50 was more than 1000 nM in [2], less than 10 nM in [6], 10 to 100 nM in assay [7] and 10 to 100 nM in [8].

The record behind these values is patent US8940756B2, “Dihydronaphthyridines and related compounds useful as kinase inhibitors for the treatment of proliferative diseases” (Deciphera Pharmaceuticals, Inc., priority 2012, dated 2015).
